From US20230321067A1, “DOSING REGIMEN COMPRISING 3-(1-OXOISOINDOLIN-2-YL)PIPERIDINE-2,6-DIONE DERIVATIVES” (Novartis AG, priority 2020, published 2023)

Columns and labels:
[1] = target: CYP2E1 (Homo sapiens, UniProt P05181); experiment: CYP inhibition: CYP2E1; type: in vitro ADME; settings: I-57 concentrations of up to 100 μM
[2] = target: CYP1A2 (Homo sapiens, UniProt P05177); experiment: CYP inhibition: CYP1A2; type: in vitro ADME; settings: I-57 concentrations of up to 100 μM
[3] = system: primary human Tregs; experiment: Suppression of Teff proliferation by in vitro expanded primary human Tregs; type: cell-based
[4] = In vitro metabolism in liver microsomes and hepatocytes across species; type: in vitro ADME
Protocol: (§1) In vivo in the dog, very minor amounts of the N-dealkylation product and products derived from hydrolysis of the glutarimide moiety were detected in plasma. While the contribution of CYP-mediated oxidative metabolism to systemic clearance is unknown, a preliminary assessment of the enzymes involved was conducted using human recombinant CYPs in vitro.

[5] = target: P-gp (Homo sapiens, UniProt P08183); experiment: P-gp substrate assessment; type: in vitro ADME
P-gp, sequence (P08183 whole entry): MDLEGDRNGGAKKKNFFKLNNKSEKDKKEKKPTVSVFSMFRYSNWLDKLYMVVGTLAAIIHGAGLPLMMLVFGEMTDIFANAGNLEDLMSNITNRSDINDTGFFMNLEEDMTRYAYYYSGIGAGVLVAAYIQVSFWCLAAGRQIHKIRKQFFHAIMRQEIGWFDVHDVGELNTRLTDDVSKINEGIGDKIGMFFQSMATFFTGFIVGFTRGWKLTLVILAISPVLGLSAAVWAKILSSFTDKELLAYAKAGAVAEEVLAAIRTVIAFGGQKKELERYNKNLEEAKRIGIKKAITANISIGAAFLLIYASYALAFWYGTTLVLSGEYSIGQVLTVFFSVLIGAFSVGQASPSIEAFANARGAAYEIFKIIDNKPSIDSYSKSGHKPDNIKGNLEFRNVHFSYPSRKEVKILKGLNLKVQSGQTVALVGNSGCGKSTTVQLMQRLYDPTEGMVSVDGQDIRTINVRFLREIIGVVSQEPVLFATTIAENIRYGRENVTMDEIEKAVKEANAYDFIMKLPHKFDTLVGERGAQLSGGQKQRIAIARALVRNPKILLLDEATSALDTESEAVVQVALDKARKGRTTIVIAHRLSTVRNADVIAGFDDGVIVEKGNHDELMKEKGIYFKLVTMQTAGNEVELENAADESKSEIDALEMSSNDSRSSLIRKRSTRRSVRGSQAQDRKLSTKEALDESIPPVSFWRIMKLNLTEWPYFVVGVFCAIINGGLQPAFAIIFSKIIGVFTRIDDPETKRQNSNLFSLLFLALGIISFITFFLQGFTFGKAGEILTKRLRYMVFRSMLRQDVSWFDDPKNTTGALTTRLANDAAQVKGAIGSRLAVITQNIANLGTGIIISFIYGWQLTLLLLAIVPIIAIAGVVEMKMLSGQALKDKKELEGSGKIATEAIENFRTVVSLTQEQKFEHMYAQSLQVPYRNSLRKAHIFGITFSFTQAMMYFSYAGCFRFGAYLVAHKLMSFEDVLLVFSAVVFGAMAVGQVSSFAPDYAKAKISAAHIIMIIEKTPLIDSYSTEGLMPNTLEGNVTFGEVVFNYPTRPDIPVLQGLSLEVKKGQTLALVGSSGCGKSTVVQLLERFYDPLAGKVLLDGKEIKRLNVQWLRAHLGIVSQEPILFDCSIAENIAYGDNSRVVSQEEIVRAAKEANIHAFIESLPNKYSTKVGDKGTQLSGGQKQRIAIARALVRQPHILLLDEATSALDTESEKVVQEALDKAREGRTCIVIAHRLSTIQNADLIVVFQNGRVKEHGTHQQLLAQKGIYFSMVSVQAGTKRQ

[6] = In vivo non-clinical PK profile, all species tested; parameters: species or system mouse, rat, dog and cynomolgus monkey
Protocol: The in vivo non-clinical PK profile of I-57 was investigated in mouse, rat, dog and cynomolgus monkey using I-57 free base. […] After p.o. administration, the absorption of I-57 was rapid with peak blood concentration (Tmax) occurring between 1 and 4 hours. […] In high dose PK and toxicology studies with I-57 the exposures in mouse, rat and monkey increased with dose.

[7] = target: T1, IKZF2 (Homo sapiens, UniProt Q96SW2+Q9UKS7); experiment: IKZF2 degradation in vitro (FIG. 1); type: cell-based; parameters: prolabel (ProLabel enzyme-fragment tag); expressed in transfected cells; host or cells: HEK293T
T1 sequence (Q9UKS7 whole entry, the tested form may be a part): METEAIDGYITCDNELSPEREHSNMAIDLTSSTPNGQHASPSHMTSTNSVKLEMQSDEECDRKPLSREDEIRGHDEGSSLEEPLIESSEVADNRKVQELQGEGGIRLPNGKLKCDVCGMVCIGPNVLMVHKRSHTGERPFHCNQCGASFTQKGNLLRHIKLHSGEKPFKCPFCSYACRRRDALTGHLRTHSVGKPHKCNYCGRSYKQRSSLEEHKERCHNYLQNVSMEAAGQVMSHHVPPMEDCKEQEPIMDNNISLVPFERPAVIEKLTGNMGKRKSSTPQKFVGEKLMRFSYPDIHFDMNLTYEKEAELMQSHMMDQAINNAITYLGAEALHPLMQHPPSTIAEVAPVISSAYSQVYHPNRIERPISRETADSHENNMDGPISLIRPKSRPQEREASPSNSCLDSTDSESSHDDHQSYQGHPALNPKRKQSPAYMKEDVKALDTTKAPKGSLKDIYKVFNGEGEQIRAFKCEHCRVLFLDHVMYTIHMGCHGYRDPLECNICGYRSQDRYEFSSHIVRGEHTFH
T1 sequence (Q96SW2 whole entry, the tested form may be a part): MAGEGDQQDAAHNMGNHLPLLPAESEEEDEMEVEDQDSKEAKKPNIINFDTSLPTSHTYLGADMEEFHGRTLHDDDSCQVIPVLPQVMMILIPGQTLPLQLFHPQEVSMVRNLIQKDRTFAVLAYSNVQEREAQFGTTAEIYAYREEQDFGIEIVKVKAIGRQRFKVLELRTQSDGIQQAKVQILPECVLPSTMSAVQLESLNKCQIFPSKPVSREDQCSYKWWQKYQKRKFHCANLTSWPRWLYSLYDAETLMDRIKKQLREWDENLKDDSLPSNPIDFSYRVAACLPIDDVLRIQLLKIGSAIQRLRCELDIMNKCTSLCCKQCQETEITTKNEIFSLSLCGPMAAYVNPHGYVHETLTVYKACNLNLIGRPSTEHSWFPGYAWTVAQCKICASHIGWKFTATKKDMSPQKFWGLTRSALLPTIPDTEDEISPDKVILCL
T1 sequence (Q16531 whole entry partner, the tested form may be a part): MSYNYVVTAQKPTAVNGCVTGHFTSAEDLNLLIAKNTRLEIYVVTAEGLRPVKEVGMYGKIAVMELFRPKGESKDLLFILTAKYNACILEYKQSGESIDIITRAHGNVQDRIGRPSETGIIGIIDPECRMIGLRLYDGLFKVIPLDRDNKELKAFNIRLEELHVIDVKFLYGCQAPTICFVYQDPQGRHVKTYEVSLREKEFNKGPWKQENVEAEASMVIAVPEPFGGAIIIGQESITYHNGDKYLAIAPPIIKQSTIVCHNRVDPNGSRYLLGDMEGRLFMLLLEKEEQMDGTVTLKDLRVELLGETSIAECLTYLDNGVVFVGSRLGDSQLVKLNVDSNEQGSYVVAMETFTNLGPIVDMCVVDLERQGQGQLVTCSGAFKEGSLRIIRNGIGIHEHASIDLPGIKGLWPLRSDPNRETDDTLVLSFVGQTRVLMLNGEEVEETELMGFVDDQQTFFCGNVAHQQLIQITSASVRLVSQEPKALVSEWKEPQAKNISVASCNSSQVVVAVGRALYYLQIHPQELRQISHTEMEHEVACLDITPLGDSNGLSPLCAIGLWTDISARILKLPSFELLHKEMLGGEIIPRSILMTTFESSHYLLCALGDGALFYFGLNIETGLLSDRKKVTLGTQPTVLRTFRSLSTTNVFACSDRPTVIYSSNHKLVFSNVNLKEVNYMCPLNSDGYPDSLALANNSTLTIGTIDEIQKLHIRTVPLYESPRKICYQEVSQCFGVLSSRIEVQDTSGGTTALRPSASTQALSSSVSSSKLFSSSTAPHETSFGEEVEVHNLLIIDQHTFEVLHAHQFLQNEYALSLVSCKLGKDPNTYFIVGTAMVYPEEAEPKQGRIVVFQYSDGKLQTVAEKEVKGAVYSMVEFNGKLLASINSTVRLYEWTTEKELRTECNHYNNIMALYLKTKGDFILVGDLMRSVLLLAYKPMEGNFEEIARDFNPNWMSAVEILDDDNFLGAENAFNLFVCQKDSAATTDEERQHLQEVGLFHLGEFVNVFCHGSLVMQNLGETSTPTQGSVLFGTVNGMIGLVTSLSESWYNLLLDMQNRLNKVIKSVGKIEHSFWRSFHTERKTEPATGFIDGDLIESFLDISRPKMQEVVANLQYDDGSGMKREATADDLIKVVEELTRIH
Description: (§2) Although the specific transcriptional targets of IKZF2 remain to be defined, IKZF2 binds to and represses transcription from the IL-2 promoter region (Baine 2013). […] Finally, an in vitro assay recapitulating hallmarks of T cell dysfunction/exhaustion, by sequential TCR stimulation of isolated primary human T cells, was used to test the hypothesis that […] would rescue the exhausted phenotype and enhance Teff cell activity. […] In addition to IKZF1, other known cereblon substrates including translation termination factor G1 to S phase transition 1 (GSPT1) are not degraded by I-57 (FIG. 1).

[8] = system: peripheral T cells; experiment: Proliferation of peripheral T cells (Ki67 staining) in immunized cynomolgus monkeys (FIG. 9B); type: in vivo, cynomolgus monkey; settings: 3 mg/kg daily, recall response phase, compared to immunization alone
Protocol: FIG. 9B. is a graph showing proliferation of peripheral T cells (Mean+/−SEM, % of predose) upon treatment with 0.1 and 3 mg/kg of Compound I-57 in cynomolgus monkeys.

[9] = target: CYP3A4 (Homo sapiens, UniProt P08684); experiment: Enzyme phenotyping with human recombinant CYPs; type: in vitro ADME; settings: human recombinant CYPs in vitro; preliminary assessment
Protocol: as §1

[10] = target: CYP2B6 (Homo sapiens, UniProt P20813); experiment: CYP inhibition: CYP2B6; type: in vitro ADME; settings: I-57 concentrations of up to 100 μM
CYP2B6, sequence (P20813 whole entry): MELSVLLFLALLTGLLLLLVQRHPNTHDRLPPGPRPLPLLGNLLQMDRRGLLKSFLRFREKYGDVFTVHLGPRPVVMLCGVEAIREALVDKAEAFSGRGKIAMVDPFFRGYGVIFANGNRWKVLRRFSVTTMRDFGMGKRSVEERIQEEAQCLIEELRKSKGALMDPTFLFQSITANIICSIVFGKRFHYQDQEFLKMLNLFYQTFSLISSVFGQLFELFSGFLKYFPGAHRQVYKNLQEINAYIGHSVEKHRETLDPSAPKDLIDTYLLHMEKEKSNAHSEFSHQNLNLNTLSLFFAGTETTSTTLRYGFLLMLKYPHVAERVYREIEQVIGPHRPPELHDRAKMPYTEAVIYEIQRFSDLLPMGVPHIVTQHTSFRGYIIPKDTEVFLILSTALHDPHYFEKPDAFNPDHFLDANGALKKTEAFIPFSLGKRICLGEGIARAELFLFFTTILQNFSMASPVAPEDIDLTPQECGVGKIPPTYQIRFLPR

[11] = target: T2, IKZF1 (Ikaros) (Homo sapiens, UniProt Q13422); experiment: IKZF1 degradation in vitro (FIG. 1); type: cell-based
T2 construct: ProLabel; expressed in transfected cells; host or cells: HEK293T
Description: as §2

[12] = target: T1, IKZF2; experiment: IKZF2 protein levels in total tumor-infiltrating lymphocytes by immunohistochemistry, hPBMC AdT model with MDA-MB231 xenografts (FIG. 8A, 8B); type: in vivo; parameters: endogenous in cells; host or cells: primary human PBMCs; settings: 24 h post the 14th daily dose
Protocol: FIG. 6 is a pictorial representation of the multi-dose PK/PD study design in the human PBMC adoptive transfer mouse model harboring MDA-MB231 xenografts. Fourteen consecutive daily doses of Compound I-57 was administered at 0.3 mg/kg, 1 mg/kg, 3 mg/kg or 30 mg/kg.
FIG. 8A is a bar graph showing the change in the IKZF2 protein levels in total tumor-infiltrating lymphocytes by immunohistochemistry (IHC) at 24 h post the 14th daily dose of 1, 3 or 30 mg/kg Compound I-57.

[13] = system: IKZF2; experiment: Single oral dose PD in cynomolgus monkey: IKZF2 expression in T cells from PBMCs by flow cytometry; type: in vivo
Protocol: The PK/PD relationship of I-57 was examined in cynomolgus monkeys after a single oral dose of 0.01, 0.1 or 1 mg/kg. I-57 plasma concentration and IKZF2 expression (as determined by flow cytometry) in FOXP3+ T cells from PBMCs were determined (FIG. 4 and FIG. 5).
Decreased (percentage change) IKZF2 positive […] cells, as determined by flow cytometry, were detectable at 4h post dose in the 1 mg/kg and 0.1 mg/kg groups, reaching maximum at 12-24 hrs post-dose and maintaining this maximum for 12-24 hrs.

[14] = Blood-to-plasma ratio, human; type: in vitro ADME
Description: (§3) The binding to plasma protein of I-57 in vitro was moderate in all species, with an observed difference between rodents (73% in mouse, 76% in rat) and non-rodents (52% in dog and monkey, 54% in human). Blood-to-plasma ratios were in the range of 0.7-1.8 (human 1.1-1.3). […] Based on results with non-radiolabeled I-57 in the dog, a significant amount of unchanged I-57 was renally eliminated (˜20% of dose).

[15] = target: CYP2C8 (Homo sapiens, UniProt P10632); experiment: CYP inhibition: CYP2C8; type: in vitro ADME; settings: I-57 concentrations of up to 100 μM
CYP2C8, sequence (P10632 whole entry): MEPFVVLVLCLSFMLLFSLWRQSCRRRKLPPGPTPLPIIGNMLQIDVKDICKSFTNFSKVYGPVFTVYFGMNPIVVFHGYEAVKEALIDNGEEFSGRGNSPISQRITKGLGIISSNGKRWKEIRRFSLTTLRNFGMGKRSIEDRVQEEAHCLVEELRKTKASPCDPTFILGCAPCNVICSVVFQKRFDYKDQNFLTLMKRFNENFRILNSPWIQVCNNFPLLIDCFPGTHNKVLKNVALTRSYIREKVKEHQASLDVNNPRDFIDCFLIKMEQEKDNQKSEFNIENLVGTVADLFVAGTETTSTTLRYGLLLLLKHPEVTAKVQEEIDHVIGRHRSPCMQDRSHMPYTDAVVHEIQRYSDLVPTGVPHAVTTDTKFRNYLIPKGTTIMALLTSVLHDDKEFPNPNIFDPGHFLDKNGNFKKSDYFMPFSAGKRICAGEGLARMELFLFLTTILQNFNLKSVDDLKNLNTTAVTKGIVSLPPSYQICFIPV

[16] = Genotoxic potential
[17] = target: T1, IKZF2; experiment: Degradation of IKZF2 in primary PBMCs, human (FIG. 3); type: cell-based; parameters: endogenous in cells; host or cells: primary human PBMCs
Description: FIG. 3. is a bar graph showing the degradation of IKZF2 in primary PBMCs obtained from rabbit, dog, pig, cynomolgus monkey and human, and in primary splenocytes of mouse and rat and treated with Compound I-57.

[18] = system: plasma protein; experiment: Plasma protein binding in vitro, rat; type: in vitro ADME
Description: as §3

[19] = Blood-to-plasma ratio, across species; type: in vitro ADME
Description: as §3

[20] = i.v. administration, all species tested, I-57 free base

CYP2E1, sequence (P05181 whole entry): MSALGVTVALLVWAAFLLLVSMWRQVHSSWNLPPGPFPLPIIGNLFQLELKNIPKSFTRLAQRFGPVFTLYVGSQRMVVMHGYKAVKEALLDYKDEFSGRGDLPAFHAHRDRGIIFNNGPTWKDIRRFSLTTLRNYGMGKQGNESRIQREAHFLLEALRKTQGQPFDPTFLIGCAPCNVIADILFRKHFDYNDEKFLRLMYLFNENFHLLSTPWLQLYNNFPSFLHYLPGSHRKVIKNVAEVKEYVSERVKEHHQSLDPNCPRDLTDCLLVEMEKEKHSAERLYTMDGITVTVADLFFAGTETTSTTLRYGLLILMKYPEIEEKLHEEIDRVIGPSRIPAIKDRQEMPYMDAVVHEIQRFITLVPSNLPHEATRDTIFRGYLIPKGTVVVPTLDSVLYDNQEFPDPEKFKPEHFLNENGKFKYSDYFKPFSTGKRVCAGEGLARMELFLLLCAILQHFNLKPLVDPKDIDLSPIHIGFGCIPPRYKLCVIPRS

## O=C1CCC(N2Cc3cc(C4CCN(Cc5ccccc5)CC4)ccc3C2=O)C(=O)N1 (stereo not drawn) [Compound I-57, 3-(5-(1-benzylpiperidin-4-yl)-1-oxoisoindolin-2-yl)piperidine-2,6-dione]
[1]
  inhibition of CYP2E1: very little and no inhibition
[2]
  inhibition of CYP1A2: very little and no inhibition
[3]; primary human Tregs expanded in vitro
  IKZF2 protein level in Treg cells: reduced proportionally to the I-57 dose
[3]; primary human Tregs expanded in vitro in the presence of I-57
  capacity of Tregs to suppress Teff proliferation: reduced capacity to suppress Teff proliferation
[4]
  metabolic stability: very stable and no appreciable metabolic turnover was observed
[5]
  P-gp substrate status: P-gp substrate
[6]; [20]
  blood clearance (CL): low to moderate
  terminal half-life (T½): moderate
  volume of distribution (Vss): moderate to high
[6]; mouse, rat, dog, cynomolgus monkey, blood, po, p.o. administration, read-out: peak blood concentration (Tmax)
  Tmax: 1 to 4 h
[7]
  degradation of IKZF2: potent and selective degrader of IKZF2
[8]
  proportion of proliferative peripheral T cells (Ki67 staining): increased
[9]
  CYP enzyme mediating oxidative metabolism: CYP3A4 was found to primarily mediate these reactions
[10]
  inhibition of CYP2B6: very little and no inhibition
[11]
  degradation of IKZF1: not degraded
[12]; 30 mg/kg
  maximal level of IKZF2 degradation in total tumor-infiltrating lymphocytes (IHC): approximately 85%
[12]; 1, 3 and 30 mg/kg doses
  reduction in IKZF2 levels in total tumor-infiltrating lymphocytes (IHC): Robust reduction
[13]; single oral dose
  duration for which maximum decrease of IKZF2 positive cells was maintained: 12 to 24 h
[13]; single oral dose 1 mg/kg
  recovery of IKZF2 positive cells: total recovery was not achieved by day 7 post-dose
[13]; single oral dose, 1 mg/kg and 0.1 mg/kg groups, flow cytometry
  time at which decreased IKZF2 positive cells were detectable: 4 h
[13]; single oral dose, post-dose
  time to maximum decrease of IKZF2 positive cells: 12 to 24 h
[14]
  blood plasma ratio: 1.1 to 1.3
[15]
  inhibition of CYP2C8: very little and no inhibition
[16]
  genotoxic potential: no genotoxic or phototoxic potential
[17]
  degradation of IKZF2: degradation was observed
[18]
  binding to plasma protein: 76%
[19]
  blood plasma ratio: 0.7 to 1.8
